pIC50: −log10 of the molar value. Counter-ions that a name gives are not always drawn. Like-named read-outs stand apart in the source and are kept apart here.
Key:
aromatase [1] = target: T1, aromatase (Homo sapiens, UniProt P11511); assay: In vitro inhibition of the aromatase activity test (conversion of 1,2[3H]-androstenedione into estrone and estradiol, human placental microsomes); assay type: biochemical; details: 30 min at 37°C, concentration required to obtain 50% inhibition of the estrogen synthesis, read-out: Aromatase in vitro IC₅₀
T1 construct: from tissue; host or cells: human placental microsomes
T1 sequence (P11511 1-503): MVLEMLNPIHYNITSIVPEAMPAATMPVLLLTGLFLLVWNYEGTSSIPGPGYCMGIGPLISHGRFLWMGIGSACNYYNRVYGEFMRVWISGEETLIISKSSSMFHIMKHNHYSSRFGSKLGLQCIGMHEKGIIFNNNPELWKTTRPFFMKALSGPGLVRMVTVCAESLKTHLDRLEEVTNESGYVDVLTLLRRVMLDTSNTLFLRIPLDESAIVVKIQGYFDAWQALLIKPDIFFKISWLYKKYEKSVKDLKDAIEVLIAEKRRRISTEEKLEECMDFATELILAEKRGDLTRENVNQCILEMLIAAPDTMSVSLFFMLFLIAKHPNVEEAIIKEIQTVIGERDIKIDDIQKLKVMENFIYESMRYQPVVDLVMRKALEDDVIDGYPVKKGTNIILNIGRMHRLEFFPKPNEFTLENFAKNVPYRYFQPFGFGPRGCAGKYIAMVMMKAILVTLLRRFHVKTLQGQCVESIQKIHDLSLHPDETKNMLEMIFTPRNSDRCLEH
Procedure: Human placental microsomes were diluted in potassium phosphate buffer (0.1M, pH 7.4) to give about 50% conversion of androgens to estrogens (protein content : about 0.5 mg). Four ml human placental microsomes were incubated in a final volume of 5 ml with 0.2 µCi 1,2[³H]-androstenedione, 2 µg androstenedione and 5 µl of test compound and/or dimethylsulfoxide (DMSO). […] The reaction was initiated by the addition of androstenedione and proceeded for 30 min at 37°C. During the incubation period, the mixtures were gassed with air. In this assay, aromatization of androstenedione results in the production of [3H]-H₂O which is isolated by extracting the samples with chloroform to remove the free steroid.

aromatase [2] = target: T2, aromatase (Rattus norvegicus, UniProt P22443); assay: In vivo inhibition of the aromatase activity (plasma estradiol in PMSG-injected immature female rats); design: species or system Wistar rats; details: read-out: Aromatase in vivo % inhibition at 1 mg/kg
T2 construct: Immature female Wistar rats weighing 120 g were injected subcutaneously; from tissue; host or cells: whole animal: immature female Wistar rats primed with PMSG (endogenous, mainly ovarian, aromatase by own knowledge)
T2 sequence (P22443 1-508): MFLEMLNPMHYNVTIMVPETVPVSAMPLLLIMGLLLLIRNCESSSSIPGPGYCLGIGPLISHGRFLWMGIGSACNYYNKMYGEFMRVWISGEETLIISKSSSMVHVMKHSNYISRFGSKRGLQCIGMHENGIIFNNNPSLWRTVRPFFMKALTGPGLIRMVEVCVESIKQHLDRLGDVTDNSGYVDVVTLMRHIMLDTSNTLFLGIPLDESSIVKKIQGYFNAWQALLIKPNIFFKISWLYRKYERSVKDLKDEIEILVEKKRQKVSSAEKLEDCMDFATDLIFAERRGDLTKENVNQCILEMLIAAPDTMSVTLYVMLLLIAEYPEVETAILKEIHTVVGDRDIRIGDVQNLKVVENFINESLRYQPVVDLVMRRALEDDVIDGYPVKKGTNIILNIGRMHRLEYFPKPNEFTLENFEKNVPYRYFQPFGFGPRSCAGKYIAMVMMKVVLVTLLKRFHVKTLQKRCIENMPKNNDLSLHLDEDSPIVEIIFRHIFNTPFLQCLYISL
Procedure: Immature female Wistar rats weighing 120 g were injected subcutaneously with 200 I.U. of pregnant mare's serum gonadotropin (PMSG). Ninety hours later, 1 mg/kg of the test compound dissolved in 0.5 ml 20% polyethyleneglycol in water was administered by oral gavage. Control animals received 20% polyethyleneglycol only. Two hours following drug or placebo administration the rats were killed by decapitation and trunk blood was collected on heparine. Plasma estradiol concentrations were measured by standard radio-immunological procedures. […]

[3] = 1 mg/kg by oral gavage, immature female Wistar rats 90 h after PMSG, plasma estradiol two hours after administration, relative to controls

Structure (SMILES)	pIC50 (aromatase [1])	inhibition at 1 mg/kg (aromatase [2]; [3]) [%]	inhibition at 1 mg/kg (aromatase [2]; po) [%]
N#Cc1ccc(COn2nnc3ccc(C4CCCc5cncn54)cc32)cc1 (stereo not shown) [Compound 2]	7.35	96	–
CCCOn1nnc2ccc(C3CCCc4cncn43)cc21 (stereo not shown) [Compound 3]	7.53	92	–
CCOn1nnc2ccc(C3CCCc4cncn43)cc21 (stereo not shown) [Compound 4]	7.43	94	–
C=CCOn1nnc2ccc(C3CCCc4cncn43)cc21 (stereo not shown) [Compound 5]	7.55	95	–
CC(C)COn1nnc2ccc(C3CCCc4cncn43)cc21 (stereo not shown) [Compound 6]	7.23	86	–
c1cc2nnn(OCC3CC3)c2cc1C1CCCc2cncn21 (stereo not shown) [Compound 8, 1-(cyclopropylmethoxy)-6-(5,6,7,8-tetrahydroimidazo[1,5-a]pyridin-5-yl)-1H-benzotriazole mononitrate]	7.50	–	87
COn1nnc2ccc(C3CCCc4cncn43)cc21 (stereo not shown) [Compound 9]	7.24	89	–
CCCCOn1nnc2ccc(C3CCCc4cncn43)cc21 (stereo not shown) [Compound 10]	7.50	88	–
C=C(C)COn1nnc2ccc(C3CCCc4cncn43)cc21 (stereo not shown) [Compound 12]	7.60	85	–
C#CCOn1nnc2ccc(C3CCCc4cncn43)cc21 (stereo not shown) [Compound 14]	7.53	80	–
N#CCCCCOn1nnc2ccc(C3CCCc4cncn43)cc21 (stereo not shown) [Compound 18]	7.46	88	–
CCC(C)On1nnc2ccc(C3CCCc4cncn43)cc21 (stereo not shown) [Compound 20]	7.41	87	–
OCCOn1nnc2ccc(C3CCCc4cncn43)cc21 (stereo not shown) [Compound 21]	> 6.00	88	–
Cn1nnc2ccc(C3CCCc4cncn43)cc21 (stereo not shown) [Compound 23]	7.05	93	–
CCCCn1nnc2ccc(C3CCCc4cncn43)cc21 (stereo not shown) [Compound 24]	7.50	89	–
CC(C)n1nnc2ccc(C3CCCc4cncn43)cc21 (stereo not shown) [Compound 25]	7.25	91	–
CCn1nnc2ccc(C3CCCc4cncn43)cc21 (stereo not shown) [Compound 26, 1-ethyl-6-(5,6,7,8-tetrahydroimidazo[1,5-a]pyridin-5-yl)-1H-benzotriazole monohydrochloride]	7.27	93	–
CCCCCCn1nnc2ccc(C3CCCc4cncn43)cc21 (stereo not shown) [Compound 27]	7.60	86	–
c1cc2nnn(C3CCCC3)c2cc1C1CCCc2cncn21 (stereo not shown) [Compound 30]	7.37	93	–
CCCn1nnc2ccc(C3CCCc4cncn43)cc21 (stereo not shown) [Compound 31]	7.36	96	–
CC(C)(C)n1nnc2ccc(C3CCCc4cncn43)cc21 (stereo not shown) [Compound 32]	7.27	95	–
CC(C)Cn1nnc2ccc(C3CCCc4cncn43)cc21 (stereo not shown) [Compound 33]	7.34	96	–
c1cc2nnn(C3CCCCC3)c2cc1C1CCCc2cncn21 (stereo not shown) [Compound 35]	7.39	98	–

— patent EP0426225A2, “(6,7-dihydro-5H-pyrrolo[1,2-c]-imidazol-5-yl)- and (5,6,7,8-tetrahydroimidazo[1,5-a]pyridin-5-yl) substituted 1H-benzotriazole derivatives” (JANSSEN PHARMACEUTICA N.V., priority 1989, dated 1991)
